Laboratory results taken from a melting point compilation (Tetko et al.; mined from patent text by program, amines drawn as free bases though some values may be those of a salt).

| melting point [°C] | Structure (SMILES) |
| --- | --- |
| 124 | Nc1cccc(S(=O)(=O)NCc2ccccn2)c1 |
| 164 to 166 | COc1ccc(C(=O)Nc2c(Cl)cncc2Cl)nc1OC1CCCC1 |
| 118 | Cc1ccsc1C(=O)C(=CN(C)C)c1ccc(C(F)(F)F)cc1[N+](=O)[O-] |
| 124 to 127 | CCCc1nc2c(N)nc3cc(OCCN4CCCC4)ccc3c2s1 |
| 143 | Cc1ccc(Cn2ccc(OCc3ccccc3)cc2=O)cc1 |
| 138 to 139 | COC(=O)c1cncc(OCc2ccc(OCc3nc(-c4ccccc4)oc3C)cc2)c1 |
| 275 | CO[C@@H]1CN(CCn2c(C)nc3ccccc3c2=O)CC[C@@H]1NC(=O)c1cc(Cl)c(N)c2c1OCC2 (relative stereo) |
| 81 to 82 | COc1cccc(C2CCc3cc(OC)ccc3C2=O)c1 (stereo not given) |
| 244 to 245 | CC(=O)NC(NC(=O)c1cc(C)cc(C)c1)C(N)=O (stereo not given) |
| 203 to 205 | C1=CC2(c3ccccc3CP(Cc3ccccc3)Cc3ccccc3)OC2(CP(Cc2ccccc2)Cc2ccccc2)C2OC12 (stereo not given) |
| 73 to 74 | OCCCCOC(c1ccccc1)(c1ccccc1)c1ccccc1 |
| > 250 | C=C1CC(C(=O)O)NC(C(=O)O)C1 (stereo not given) |
| 198 to 200 | O=C1N(Cc2ccccn2)c2ccccc2C12COc1cc3c(cc12)OCC3 (stereo not given) |
| 165 to 173 | CCC(=O)C(=Cc1cc(O)c(O)c(C#N)c1)C(=O)CC |
| 93 to 95 | CN1CCN(CCSc2nc3ccccc3[nH]2)CC1 |
| 73.5 to 75 | CC(=O)Oc1cc(C(C)C)c(OC(C)=O)c(C(C)C)c1 |
| 233 to 235 | Cn1c(C(F)(F)F)ccc(-c2c(F)cc(Cl)c3oc(C(=O)O)cc23)c1=O |
| 89 to 91 | CCOC(=O)Nc1cc(OC(C)C)c(Cl)cc1F |
| 133 to 134 | COc1cccc(S(=O)(=O)Nc2nccnc2OC)c1 |
| 173 to 175 | CN1CCN(c2cccc3ccc(NC(=O)c4ccccc4)cc23)CC1 |
| 167 | CCCc1cc(CO)cc(=O)[nH]1 |
| 249 to 251 | Cc1ccc(NC(=O)c2ccc(CN3C(=O)C4(COc5cc6c(cc54)CCO6)c4ccccc43)cc2)c(C)c1 (stereo not given) |
| 112 | CCC(=O)c1cc(-c2cccc(O)c2)cs1 |

| melting point [°C] | Structure (SMILES) |
| --- | --- |
| 118 to 120 | O=C(O)c1ccc(CCCC2SCC(=O)N2C/C=C\C2(O)CCCCC2)cc1 (stereo not given) |
| 185 | COC(OC)C1CN=C(c2cc3sc(C)c(N(C)S(=O)(=O)c4cccs4)c3[nH]2)S1 (stereo not given) |
| 168 to 169 | CCCCCCCCCCCCCCCCS(=O)(=O)NCCc1ccc(C(=O)O)cc1 |
| 299 | Fc1ccc(-c2nc3n(c2-c2ccnc(Nc4ccccc4)c2)CCS3)cc1 |
| 84 to 87 | CCC(=NO)c1nc(C)nc2c1c(C)c(C)n2-c1c(C)cc(C)cc1C |
| 198 to 200 | O=c1[nH]nc(-c2ccccc2O)o1 |
| 193 to 195 | COc1nc2ccccc2nc1NC(=S)N1CCN(c2cc(C)cc(C)c2)CC1 |
| 168 to 170 | COc1cc(O)ccc1N |
| 186 to 188 | CC(C)n1nc(-c2c(-c3ccccc3)nc(Cl)c(N)c2Cl)ccc1=O |
| 128 to 129 | CCOC(=O)c1[nH]c(Cl)nc1-c1ccccc1 |
| 155 to 157 | O=C1OCCC1C1CCc2c1[nH]c1ccccc21 (stereo not given) |
| 118 to 120 | CCC(=CCn1oc(=O)[nH]c1=O)c1ccc2c(Cc3ccccc3)c(CC)oc2c1 |
| 311 to 312 | O=C1N=C(N2CCCCC2)SC1=Cc1cccc(-c2ccc(O)c(C34CC5CC(CC(C5)C3)C4)c2)c1 |
| 182 to 183 | COc1ccc(Oc2ccc3c(c2)C=C(C(=O)O)C(C(F)(F)F)O3)cc1 (stereo not given) |
| 202 to 205 | Cc1ccc(Sc2cncc3sc(C(=O)NC=NN)cc23)cc1 |
| 246 to 248 | CNS(=O)(=O)c1c[nH]c(-c2ccc(Cl)cc2)n1 |
| 130 | O=C1OC(c2ccccc2)C2CCc3cc(OCCCC(F)(F)F)ccc3N12 (stereo not given) |
| 150 to 151 | CCCS(=O)(=O)NCCCCn1c(=O)c2c(C)nc3cccc1n32 |
| 218 | Cc1ncn(Nc2cccc(Cl)c2)c1-c1ccccc1 |
| 92 to 95 | O=C(O)c1ccc(SC(Cn2ccnc2)c2ccc(C(F)(F)F)cc2)cc1 (stereo not given) |
| 83 to 84 | COc1cc2c(N3CCN(C(=O)Nc4ccc(Oc5ccccc5)cc4)CC3)ncnc2c(OC)c1OC |
| 160 to 162 | Cc1cc(C(=O)N(C)C)c(O)c([N+](=O)[O-])c1 |
| 125 to 126 | COC(=O)Cc1c(C)n(-c2nc3ccccc3o2)c2ccc(OC)cc12 |

| melting point [°C] | Structure (SMILES) |
| --- | --- |
| 99 to 101 | COc1ccc(-c2ccc(Cl)cc2)cc1COCCc1cccc(NS(=O)(=O)C(F)(F)F)c1 |
| 190 to 192 | O=[N+]([O-])C=C1SCCN1Cc1ccco1 |
| 278 to 280 | CC(C)(C)c1ccc(S(=O)(=O)Nc2ccc(-c3cn(C4CCCC4)c4ncnc(N)c34)cc2O)cc1 |
| 116 to 119 | CCOc1nc(C)nc(N2CCN(c3ccc(F)cc3)CC2)c1[N+](=O)[O-] |
| 150 to 152 | O=C(c1ccc(C2CCCCC2)cc1)N1Cc2cccn2Cc2ncccc21 |
| 180 to 183 | COc1ccc(C(=O)Nc2ccccc2)cc1NS(=O)(=O)c1cccs1 |
| 224 to 225 | Nc1cccc(C=Cc2ccc(O)cc2)n1 |
| 96 to 98 | CC(c1cccnn1)c1cccc(Cl)c1Cl (stereo not given) |
| 149 to 150 | COCOc1cc(Cl)ccc1-c1cc(-c2cccc(N(C(=O)OC(C)(C)C)C(=O)[C@@H](N)Cc3c[nH]cn3)c2)c(C#N)c(NC(=O)c2ccco2)n1 |
| 63 to 64 | Cc1nsc(OCC(F)(F)F)c1[N+](=O)[O-] |
| 233 to 235 | CCOc1cc2c(c3c1OC(C)(C)C3)C(c1cccc(C(=O)NC)c1)=NC(C)(C)C2=O |
| 180 to 182 | O=P1(c2ccc(Cl)cc2)c2ccccc2CN1c1ccccc1 (stereo not given) |
| 196 to 198 | CC(C)(C)OC(=O)N1CCCC(C(=O)N2CCC(c3[nH]nc4c3C(=O)c3c(NC(=O)NN5CCOCC5)cccc3-4)CC2)C1 (stereo not given) |
| 128 to 129 | COCn1c(-c2nccs2)c(Cl)c2cccc(NS(=O)(=O)c3cccs3)c21 |
| 114 | C=CCc1c(Br)cc(C(C)(C)c2cc(Br)c(CC=C)c(Br)c2)cc1Br |
| 60 to 63 | COC(=O)c1ccc(COc2cccc(-c3c(C(=O)c4ccccc4)cnc4c(C(F)(F)F)cccc34)c2)c(OC)c1 |
| 184 to 185 | CC1=C(C(=O)OC(C)(C)C)C(c2ccccc2I)C(C(=O)OC(C)(C)C)=C(C)N1 |
| 242 to 244 | CC(=O)Nc1nc(-c2ccc([N+](=O)[O-])cc2)c[nH]1 |
| 149 to 156 | COc1ccc(C2(C)Cc3cc(O)c(Cl)c(Cl)c3C2=O)cc1 (stereo not given) |
| 193 to 196 | O=C(c1ccccc1)c1cc(Cl)cc2c(=O)cc[nH]c12 |
| 175 | COc1ccc(S(=O)(=O)N2C(=O)C(NCCC(=O)OC(C)(C)C)(c3ccccc3OC)c3cc(Cl)ccc32)c(OC)c1 (stereo not given) |
| > 230 | Nc1nc2ccc3ccc(CNc4ccc(F)cc4)cc3c2c(=O)[nH]1 |

| Structure (SMILES) | melting point [°C] |
| --- | --- |
| O=P(O)(O)C1CCCN1 (stereo not given) | 275 to 280 |
| Cc1ccc(C(=O)NCCC(=O)OCc2ccccc2)c(NC(=O)C(CCCNC(=N)N[N+](=O)[O-])NC(=O)OCc2ccccc2)c1 (stereo not given) | 154 to 156 |
